{
  "source": "patent US12275957B2",
  "about": "“Next generation designer liver organoids and their methods of preparation and use” (ARIZONA BOARD OF REGENTS ON BEHALF OF ARIZONA STATE …, priority 2018, dated 2025)",
  "key": {"[1]": {"system": "FXR signaling (CYP7A1, NROB2/SHP, FGF19 expression) in DesLO", "assay": "qRT-PCR of bile acid synthesis / FXR pathway genes in DesLO after addition of FXR agonist, bile acid or FGF19", "protocol": "(§1) To further delineate the mechanism of FXR-mediated CYP7A1 repression, we tested FXR, NROB2, and FGF19 expression following GW4064 treatment.\n(§2) Tissues were harvested and lysed by adding 500 μL Trizol (Life Technologies) directly to the tissue culture well and freezing at −80C. For extraction, lysate was thawed on ice, 100 μL chloroform was added, vortexed for 30 seconds, and centrifuged at 12,000 g for 15 minutes at 4° C. After centrifugation the aqueous phase was transferred to a Qiagen gDNA eliminator column and centrifuged at 10,000 g for 1 minute at 4° C. The flow-through was mixed with an equal volume of 70% EtOH and transferred to an RNEasy mini spin column. The manufacturer protocol for the RNEasy Plus Mini Kit (QIAGEN) was followed for the rest of the procedure. cDNA was synthesized using the high Capacity cDNA reverse transcription (Applied Biosystems). qRT-PCR was performed using the SYBR Green intercalating dye (ThermoFisher Scientific) and previously validated primers (IDT). Expression was normalized to 18S ribosomal RNA and relative gene expression was calculated using 2^−ΔΔCT method."}, "[2]": {"system": "FXR signaling (CYP7A1, NROB2/SHP, FGF19 expression) in FeLO", "assay": "qRT-PCR of bile acid synthesis / FXR pathway genes in FeLO after addition of FXR agonist", "details": "FeLO cultures", "protocol": "as §1, §2"}, "[3]": {"system": "bile acid synthesis in DesLO", "assay": "Total bile acid assay in media", "assay_type": "cell-based, human", "details": "addition of GW4064", "description": "The cell supernatant was assessed at multiple dilutions to optimize detection, and the assay was performed according to the manufacturer's protocol."}, "[4]": {"system": "Desmin positive stellate-like cells in DesLO", "assay": "Fibrogenesis model: Desmin immunofluorescence and qRT-PCR", "assay_type": "cell-based, human", "details": "for Desmin positive population (immunofluorescence staining): 5 ng/mL TGFB1 for 3 days", "excerpt": "Multicellular DesLO as a Model for Fibrogenesis: Hepatic fibrosis is a maladaptive multicellular response of liver that is characterized by an excessive accumulation of extracellular matrix. It is a wound healing process, largely mediated by hepatic stellate cells (liver pericytes) which proliferate, deposit collagen, and generate scar tissue in response to injury. Since DesLOs contain a population of stellate-like cells we assessed whether this cell population respond to classical fibrotic stimuli. We induced fibrogenesis via transforming growth factor beta-1 (TGFβ1) or a combination of TGFβ1 and fetal bovine serum (FBS) supplementation to the culture medium. […] It is known that tissue culture treated polystyrene (TCTP) can increase cell stress and stellate cell proliferation.\nCells were grown on Matrigel-coated 8 mm or 12 mm diameter circular glass coverslips and fixed for 20 min in 4% paraformaldehyde (Electron Microscopy Sciences) at room temperature. Coverslips were then washed three times in 200 μl PBS droplets on Parafilm (Pechiney Plastic Packaging Company) followed by 15 min permeabilization in 100 μl of 0.2% Triton X-100 in PBS. Subsequently the coverslips were washed three times in 200 μl in washing buffer (0.05% Tween-20 in PBS) for 5 min and blocked for 20 min in 200 μl wash buffer plus 5% normal donkey serum (Jackson ImmunoResearch Laboratories). The incubation with the primary antibodies was performed for 1 h at room temperature in 30 μl of 5% normal donkey serum in PBS followed by three washes in 200 μl in PBS for 5 min each. The incubation with the secondary antibodies was performed for 1 h at room temperature in 30 μl of 5% normal donkey serum in PBS followed by three washes in 200 μl in PBS for 5 min. Finally, the coverslips were mounted on microscopy glass slides using ProLong Diamond Antifade (Life Technologies, USA), cured overnight at room temperature and then sealed with nail polish. Antibody list and concentrations are included in the supplement."}, "[5]": {"system": "FXR signaling (CYP7A1, NROB2/SHP, FGF19 expression) in DesLO", "protocol": "as §1, §2"}},
  "note": "Where two headings read alike, the source gives them in different places.",
  "data": [
    {"molecule": "fibroblast growth factor 19 [FGF19]", "values": [
      {"measurement": "CYP7A1 expression change (qRT-PCR)", "setting": "[1]; addition to the media", "value": "expected downregulation of CYP7A1"}
    ]},
    {"molecule": "CC(C)c1onc(-c2c(Cl)cccc2Cl)c1COc1ccc(/C=C/c2cccc(C(=O)O)c2)c(Cl)c1", "note": "[GW4064]", "values": [
      {"measurement": "upregulation of SHP and FGF19 / CYP7A1 repression", "setting": "[2]; GW4064 treatment", "value": "could not be captured"},
      {"measurement": "CYP7A1 repression (real-time qPCR)", "setting": "[2]; addition of GW4064", "value": "not repressed"},
      {"measurement": "total bile acid in media", "setting": "[3]", "value": "repression of bile acid synthesis"},
      {"measurement": "upregulation of FGF19", "setting": "[1]; GW4064 treatment", "value": "> 40", "unit": "folds"},
      {"measurement": "upregulation of SHP (NROB2)", "setting": "[1]; GW4064 treatment", "value": "> 40", "unit": "folds"},
      {"measurement": "CYP7A1 repression (real-time qPCR)", "setting": "[1]; addition of GW4064", "value": 4, "unit": "fold"}
    ]},
    {"molecule": "transforming growth factor beta-1 [TGFβ1]", "values": [
      {"measurement": "Desmin positive population (immunofluorescence staining)", "setting": "[4]; DesLO, versus vehicle control", "value": "visibly expanded"},
      {"measurement": "Desmin positive population (immunofluorescence staining)", "setting": "[4]; DesLO, versus vehicle control, listed as TGFB1", "value": "increase in expression"},
      {"measurement": "Desmin levels (qRT-PCR)", "setting": "[4]; DesLO, versus vehicle control", "value": "increase"},
      {"measurement": "response to TGFβ1 treatment (Desmin qRT-PCR)", "setting": "[4]; both FeLO and DesLO", "value": "responded modestly"}
    ]},
    {"molecule": "C[C@H](CCC(=O)O)[C@H]1CC[C@H]2[C@@H]3[C@H](O)C[C@@H]4C[C@H](O)CC[C@]4(C)[C@H]3CC[C@]12C", "note": "[CDCA, chenodeoxycholic acid]", "values": [
      {"measurement": "CYP7A1 expression change (qRT-PCR)", "setting": "[5]", "value": "expected downregulation of CYP7A1"}
    ]}
  ]
}
